Experiments:
Settings in all cases: Compound concentration 100.0 nM
[1] = target: Calcium/calmodulin-dependent protein kinase kinase 2 (Homo sapiens) (UniProt Q96RR4)
[2] = target: Mitogen-activated protein kinase 8 (Homo sapiens) (UniProt P45983)
[3] = target: Serine/threonine-protein kinase TNNI3K (Homo sapiens) (UniProt Q59H18)
[4] = target: TRAF2 and NCK-interacting protein kinase (Homo sapiens) (UniProt Q9UKE5)
[5] = tested on: Proto-oncogene tyrosine-protein kinase receptor Ret (Homo sapiens), P07949 [M918T]
[6] = target: Myosin light chain kinase, smooth muscle (Homo sapiens) (UniProt Q15746)
[7] = target: Serine/threonine-protein kinase WNK1 (Homo sapiens) (UniProt Q9H4A3)
[8] = target: Hormonally up-regulated neu tumor-associated kinase (Homo sapiens) (UniProt P57058)
[9] = target: Serine/threonine-protein kinase PAK 4 (Homo sapiens) (UniProt O96013)
[10] = tested on: Tyrosine-protein kinase ABL1 (Homo sapiens), P00519 [T315I]
[11] = target: Serine/threonine-protein kinase PAK 2 (Homo sapiens) (UniProt Q13177)
[12] = target: Calcium/calmodulin-dependent protein kinase type II subunit gamma (Homo sapiens) (UniProt Q13555)
[13] = target: Dual specificity mitogen-activated protein kinase kinase 5 (Homo sapiens) (UniProt Q13163)
[14] = target: Serine/threonine-protein kinase Nek3 (Homo sapiens) (UniProt P51956)
[15] = target: cAMP-dependent protein kinase catalytic subunit PRKX (Homo sapiens) (UniProt P51817)
[16] = tested on: Serine/threonine-protein kinase B-raf (Homo sapiens), P15056 [V600E]
[17] = target: Serine/threonine-protein kinase WNK4 (Homo sapiens) (UniProt Q96J92)
[18] = target: Receptor-interacting serine/threonine-protein kinase 4 (Homo sapiens) (UniProt P57078)
[19] = target: Homeodomain-interacting protein kinase 1 (Homo sapiens) (UniProt Q86Z02)
[20] = target: Mitogen-activated protein kinase 13 (Homo sapiens) (UniProt O15264)
[21] = target: Testis-specific serine/threonine-protein kinase 1 (Homo sapiens) (UniProt Q9BXA7)
[22] = target: Cyclin-dependent kinase 18 (Homo sapiens) (UniProt Q07002)
[23] = target: Focal adhesion kinase 1 (Homo sapiens) (UniProt Q05397)
[24] = target: Mitogen-activated protein kinase kinase kinase 7 (Homo sapiens) (UniProt O43318)
[25] = tested on: Phosphatidylinositol 4,5-bisphosphate 3-kinase catalytic subunit alpha isoform (Homo sapiens), P42336 [Q546K]
[26] = target: Cyclin-dependent kinase 17 (Homo sapiens) (UniProt Q00537)
[27] = target: Wee1-like protein kinase 2 (Homo sapiens) (UniProt P0C1S8)
[28] = target: Serine/threonine-protein kinase PLK3 (Homo sapiens) (UniProt Q9H4B4)
[29] = target: Glycogen synthase kinase-3 alpha (Homo sapiens) (UniProt P49840)
[30] = target: Beta-adrenergic receptor kinase 1 (Homo sapiens) (UniProt P25098)
[31] = target: TGF-beta receptor type-1 (Homo sapiens) (UniProt P36897)
[32] = target: Receptor-type tyrosine-protein kinase FLT3 (Homo sapiens) (UniProt P36888)
[33] = tested on: Epidermal growth factor receptor (Homo sapiens), P00533 [UNDEFINED MUTATION]
[34] = target: STE20-like serine/threonine-protein kinase (Homo sapiens) (UniProt Q9H2G2)
[35] = target: Bone morphogenetic protein receptor type-1B (Homo sapiens) (UniProt O00238)
[36] = tested on: Mast/stem cell growth factor receptor Kit (Homo sapiens), P10721 [A829P]
[37] = target: Muscle, skeletal receptor tyrosine-protein kinase (Homo sapiens) (UniProt O15146)
[38] = target: Dual specificity tyrosine-phosphorylation-regulated kinase 2 (Homo sapiens) (UniProt Q92630)
[39] = target: Serine/threonine-protein kinase Nek6 (Homo sapiens) (UniProt Q9HC98)
[40] = target: Ribosomal protein S6 kinase alpha-6 (Homo sapiens) (UniProt Q9UK32)
[41] = target: Phosphatidylinositol 4-kinase beta (Homo sapiens) (UniProt Q9UBF8)
[42] = target: Serine/threonine-protein kinase MAK (Homo sapiens) (UniProt P20794)
[43] = target: Serine/threonine-protein kinase 3 (Homo sapiens) (UniProt Q13188)
[44] = target: Serine/threonine-protein kinase RIO1 (Homo sapiens) (UniProt Q9BRS2)
[45] = target: Myotonin-protein kinase (Homo sapiens) (UniProt Q09013)

Sequence of Phosphatidylinositol 4-kinase beta (Homo sapiens) (Q9UBF8 2-816 limits assumed): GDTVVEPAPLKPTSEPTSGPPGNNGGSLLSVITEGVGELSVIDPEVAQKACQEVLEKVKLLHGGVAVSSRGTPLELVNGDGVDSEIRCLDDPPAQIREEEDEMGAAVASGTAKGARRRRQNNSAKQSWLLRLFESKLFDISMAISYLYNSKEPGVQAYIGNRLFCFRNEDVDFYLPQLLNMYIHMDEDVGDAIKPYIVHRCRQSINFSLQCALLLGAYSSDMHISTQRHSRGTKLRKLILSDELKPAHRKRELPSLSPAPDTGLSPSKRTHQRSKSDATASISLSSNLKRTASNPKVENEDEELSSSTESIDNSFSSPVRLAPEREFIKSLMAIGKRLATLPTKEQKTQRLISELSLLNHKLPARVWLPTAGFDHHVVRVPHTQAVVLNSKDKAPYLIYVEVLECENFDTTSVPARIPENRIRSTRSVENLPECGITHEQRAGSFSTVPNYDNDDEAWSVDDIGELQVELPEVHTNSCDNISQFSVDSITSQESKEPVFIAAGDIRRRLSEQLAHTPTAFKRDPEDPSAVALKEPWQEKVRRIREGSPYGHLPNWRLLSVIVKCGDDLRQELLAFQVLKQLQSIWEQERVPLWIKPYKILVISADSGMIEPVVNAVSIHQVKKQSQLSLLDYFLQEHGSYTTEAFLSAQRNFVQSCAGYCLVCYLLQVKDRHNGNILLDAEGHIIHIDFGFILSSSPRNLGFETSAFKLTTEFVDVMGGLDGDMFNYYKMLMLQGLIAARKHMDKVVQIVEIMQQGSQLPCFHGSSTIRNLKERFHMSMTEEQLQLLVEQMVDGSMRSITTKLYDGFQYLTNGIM
Sequence of Dual specificity mitogen-activated protein kinase kinase 5 (Homo sapiens) (Q13163 whole entry): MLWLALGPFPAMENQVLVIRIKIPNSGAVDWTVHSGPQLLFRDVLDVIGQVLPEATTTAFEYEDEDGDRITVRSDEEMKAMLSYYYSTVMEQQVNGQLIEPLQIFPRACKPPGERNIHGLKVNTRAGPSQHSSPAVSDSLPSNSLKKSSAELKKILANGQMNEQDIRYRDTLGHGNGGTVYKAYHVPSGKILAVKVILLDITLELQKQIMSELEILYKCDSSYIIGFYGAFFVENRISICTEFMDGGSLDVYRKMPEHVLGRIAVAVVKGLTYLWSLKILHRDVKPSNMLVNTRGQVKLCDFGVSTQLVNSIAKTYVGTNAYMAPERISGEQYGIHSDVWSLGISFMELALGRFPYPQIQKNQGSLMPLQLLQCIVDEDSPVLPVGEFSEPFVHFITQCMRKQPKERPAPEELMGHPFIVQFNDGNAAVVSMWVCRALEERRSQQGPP
Sequence of Testis-specific serine/threonine-protein kinase 1 (Homo sapiens) (Q9BXA7 whole entry): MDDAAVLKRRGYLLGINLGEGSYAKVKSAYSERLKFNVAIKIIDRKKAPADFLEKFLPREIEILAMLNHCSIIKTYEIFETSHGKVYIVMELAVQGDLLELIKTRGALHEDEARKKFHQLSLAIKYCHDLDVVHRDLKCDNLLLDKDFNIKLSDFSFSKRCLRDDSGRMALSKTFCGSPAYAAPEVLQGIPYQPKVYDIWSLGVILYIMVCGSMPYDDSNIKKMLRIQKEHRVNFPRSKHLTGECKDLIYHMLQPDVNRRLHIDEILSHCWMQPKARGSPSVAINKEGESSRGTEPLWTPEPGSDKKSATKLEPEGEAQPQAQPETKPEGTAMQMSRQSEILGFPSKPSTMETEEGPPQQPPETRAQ
Sequence of Mitogen-activated protein kinase kinase kinase 7 (Homo sapiens) (O43318 whole entry, canonical isoform): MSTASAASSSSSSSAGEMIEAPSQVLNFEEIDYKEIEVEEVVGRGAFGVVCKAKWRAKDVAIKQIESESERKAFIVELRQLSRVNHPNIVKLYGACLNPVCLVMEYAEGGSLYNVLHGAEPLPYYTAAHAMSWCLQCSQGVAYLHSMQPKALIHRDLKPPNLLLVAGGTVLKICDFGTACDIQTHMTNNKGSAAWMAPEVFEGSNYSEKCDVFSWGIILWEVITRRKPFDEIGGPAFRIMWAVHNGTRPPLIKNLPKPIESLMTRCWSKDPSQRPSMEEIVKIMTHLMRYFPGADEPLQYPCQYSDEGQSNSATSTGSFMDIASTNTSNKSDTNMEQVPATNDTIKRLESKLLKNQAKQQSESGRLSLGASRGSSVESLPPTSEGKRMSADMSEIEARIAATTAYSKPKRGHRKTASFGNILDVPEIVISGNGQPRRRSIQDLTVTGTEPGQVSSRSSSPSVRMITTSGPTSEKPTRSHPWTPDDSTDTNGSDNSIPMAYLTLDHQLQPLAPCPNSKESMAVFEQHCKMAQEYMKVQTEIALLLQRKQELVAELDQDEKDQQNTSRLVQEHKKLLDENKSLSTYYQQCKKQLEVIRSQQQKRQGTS
Sequence of Serine/threonine-protein kinase B-raf (Homo sapiens), P15056 [V600E] (P15056 whole entry V600E): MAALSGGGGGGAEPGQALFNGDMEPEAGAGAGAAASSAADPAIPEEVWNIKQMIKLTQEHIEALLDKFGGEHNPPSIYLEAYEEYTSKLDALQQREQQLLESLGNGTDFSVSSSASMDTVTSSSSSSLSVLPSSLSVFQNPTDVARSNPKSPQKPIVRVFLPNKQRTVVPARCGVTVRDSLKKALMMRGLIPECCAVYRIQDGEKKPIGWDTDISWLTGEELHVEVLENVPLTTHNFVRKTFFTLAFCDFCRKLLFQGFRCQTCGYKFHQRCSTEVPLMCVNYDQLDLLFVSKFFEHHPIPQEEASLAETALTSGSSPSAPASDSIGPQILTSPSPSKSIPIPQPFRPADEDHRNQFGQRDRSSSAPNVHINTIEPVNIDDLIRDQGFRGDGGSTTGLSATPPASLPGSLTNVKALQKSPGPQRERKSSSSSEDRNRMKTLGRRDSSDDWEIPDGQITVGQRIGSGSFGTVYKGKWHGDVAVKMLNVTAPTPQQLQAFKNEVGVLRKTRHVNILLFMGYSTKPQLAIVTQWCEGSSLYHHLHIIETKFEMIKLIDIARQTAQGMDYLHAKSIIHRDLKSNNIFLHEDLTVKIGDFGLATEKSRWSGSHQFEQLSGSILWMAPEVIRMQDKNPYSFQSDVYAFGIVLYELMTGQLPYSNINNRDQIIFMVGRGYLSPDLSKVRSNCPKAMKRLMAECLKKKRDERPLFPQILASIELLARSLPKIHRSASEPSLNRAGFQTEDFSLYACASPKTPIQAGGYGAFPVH
Sequence of Ribosomal protein S6 kinase alpha-6 (Homo sapiens) (Q9UK32 whole entry): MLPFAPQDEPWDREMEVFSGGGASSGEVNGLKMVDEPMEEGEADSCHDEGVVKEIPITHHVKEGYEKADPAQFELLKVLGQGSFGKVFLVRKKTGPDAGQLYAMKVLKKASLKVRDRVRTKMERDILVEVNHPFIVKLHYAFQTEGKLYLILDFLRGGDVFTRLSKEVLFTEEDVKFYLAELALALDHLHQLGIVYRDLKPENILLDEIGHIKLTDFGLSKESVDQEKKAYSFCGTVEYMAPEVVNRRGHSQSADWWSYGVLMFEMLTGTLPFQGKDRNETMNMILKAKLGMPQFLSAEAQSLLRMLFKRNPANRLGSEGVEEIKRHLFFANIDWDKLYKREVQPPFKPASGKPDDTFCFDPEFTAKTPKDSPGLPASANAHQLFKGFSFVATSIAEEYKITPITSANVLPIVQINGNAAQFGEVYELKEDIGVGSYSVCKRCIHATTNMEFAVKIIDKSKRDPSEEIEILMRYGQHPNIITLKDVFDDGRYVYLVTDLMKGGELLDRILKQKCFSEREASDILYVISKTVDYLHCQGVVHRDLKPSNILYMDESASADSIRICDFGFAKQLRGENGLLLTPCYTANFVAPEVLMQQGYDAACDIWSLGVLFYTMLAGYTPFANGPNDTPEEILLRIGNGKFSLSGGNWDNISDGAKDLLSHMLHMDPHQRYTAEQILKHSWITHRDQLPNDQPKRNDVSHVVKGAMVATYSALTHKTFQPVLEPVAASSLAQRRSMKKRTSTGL
Sequence of Serine/threonine-protein kinase RIO1 (Homo sapiens) (Q9BRS2 whole entry): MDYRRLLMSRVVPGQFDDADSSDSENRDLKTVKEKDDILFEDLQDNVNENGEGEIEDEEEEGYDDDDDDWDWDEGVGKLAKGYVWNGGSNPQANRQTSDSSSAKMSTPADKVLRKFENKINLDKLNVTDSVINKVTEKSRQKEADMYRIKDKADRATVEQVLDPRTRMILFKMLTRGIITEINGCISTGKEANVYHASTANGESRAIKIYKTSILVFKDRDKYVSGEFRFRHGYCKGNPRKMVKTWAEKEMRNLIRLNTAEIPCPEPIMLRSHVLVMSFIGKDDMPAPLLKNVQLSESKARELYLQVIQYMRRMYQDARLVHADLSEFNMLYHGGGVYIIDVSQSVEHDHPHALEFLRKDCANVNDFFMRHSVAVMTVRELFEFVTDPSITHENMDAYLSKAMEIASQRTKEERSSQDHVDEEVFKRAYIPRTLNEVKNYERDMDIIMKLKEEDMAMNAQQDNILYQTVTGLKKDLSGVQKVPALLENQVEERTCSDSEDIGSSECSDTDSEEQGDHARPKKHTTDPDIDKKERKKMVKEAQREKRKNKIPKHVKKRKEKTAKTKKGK
Sequence of Hormonally up-regulated neu tumor-associated kinase (Homo sapiens) (P57058 whole entry): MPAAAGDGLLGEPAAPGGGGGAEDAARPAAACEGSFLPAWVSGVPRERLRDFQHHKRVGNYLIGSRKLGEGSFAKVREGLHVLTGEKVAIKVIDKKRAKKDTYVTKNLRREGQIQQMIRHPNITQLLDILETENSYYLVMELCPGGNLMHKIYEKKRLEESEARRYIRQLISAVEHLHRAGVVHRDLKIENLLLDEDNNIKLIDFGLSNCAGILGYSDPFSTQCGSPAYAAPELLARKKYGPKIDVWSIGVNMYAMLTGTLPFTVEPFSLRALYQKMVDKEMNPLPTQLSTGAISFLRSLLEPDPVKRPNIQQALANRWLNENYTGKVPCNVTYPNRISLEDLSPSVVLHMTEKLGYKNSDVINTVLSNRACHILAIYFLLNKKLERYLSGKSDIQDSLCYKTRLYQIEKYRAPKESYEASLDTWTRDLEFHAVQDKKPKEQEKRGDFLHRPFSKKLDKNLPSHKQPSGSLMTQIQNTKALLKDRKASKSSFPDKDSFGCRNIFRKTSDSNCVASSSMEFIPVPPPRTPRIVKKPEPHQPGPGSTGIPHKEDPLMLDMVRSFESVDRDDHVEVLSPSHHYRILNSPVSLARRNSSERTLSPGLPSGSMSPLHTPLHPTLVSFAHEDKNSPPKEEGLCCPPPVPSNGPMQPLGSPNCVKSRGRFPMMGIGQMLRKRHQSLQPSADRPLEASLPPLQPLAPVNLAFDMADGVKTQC

In the case of `CS(=O)(=O)N1CCCC(NC(=O)[C@H](CCC2CCCCC2)NC(=O)c2ccc(CNc3ncnc4c3nnn4-c3ccccc3)cc2)C1` (stereo not given in full) [SR-301], the residual activity [1] was 78%, the residual activity [2] was 85% and the residual activity [3] was 63%. It also gave a residual activity [4] of 45%, a residual activity [5] of 93% and a residual activity [6] of 100%. The residual activity [7] was 100%, the residual activity [8] was 100% and the residual activity [9] was 100%. For the same compound, the residual activity [10] was 100%, the residual activity [11] was 100% and the residual activity [12] was 94%. The residual activity [13] was 100%, the residual activity [14] was 100% and the residual activity [15] was 100%. For the same compound, the residual activity [16] was 100%, the residual activity [17] was 100% and the residual activity [18] was 100%. The residual activity [19] was 100%, the residual activity [20] was 100% and the residual activity [21] was 85%. For the same compound, the residual activity [22] was 100%, the residual activity [23] was 100% and the residual activity [24] was 100%. It also gave a residual activity [25] of 60%, a residual activity [26] of 86% and a residual activity [27] of 100%. It also gave a residual activity [28] of 100%, a residual activity [29] of 100% and a residual activity [30] of 72%. For the same compound, the residual activity [31] was 100%, the residual activity [32] was 82% and the residual activity [33] was 100%. For the same compound, the residual activity [34] was 100%, the residual activity [35] was 91% and the residual activity [36] was 100%. It also gave a residual activity [37] of 100%, a residual activity [38] of 100% and a residual activity [39] of 86%. For the same compound, the residual activity [40] was 100%, the residual activity [41] was 100% and the residual activity [42] was 100%. For the same compound, the residual activity [43] was 95%, the residual activity [44] was 54% and the residual activity [45] was 100%.
Compound `CS(=O)(=O)N1CCCC(NC(=O)[C@H](CCC2CCCCC2)NC(=O)c2ccc(CNC(=O)c3cnc4ccccn34)cc2)C1` (stereo not given in full) [SR-302] has a residual activity [1] of 88%, a residual activity [2] of 100% and a residual activity [3] of 89%. The residual activity [4] was 100%, the residual activity [5] was 93% and the residual activity [6] was 100%. It also gave a residual activity [7] of 99%, a residual activity [8] of 100% and a residual activity [9] of 100%. The residual activity [10] was 100%, the residual activity [11] was 93% and the residual activity [12] was 86%. For the same compound, the residual activity [13] was 97%, the residual activity [14] was 100% and the residual activity [15] was 65%. For the same compound, the residual activity [16] was 51%, the residual activity [17] was 80% and the residual activity [18] was 92%. It also gave a residual activity [19] of 100%, a residual activity [20] of 100% and a residual activity [21] of 94%. The residual activity [22] was 100%, the residual activity [23] was 92% and the residual activity [24] was 94%. For the same compound, the residual activity [25] was 90%, the residual activity [26] was 80% and the residual activity [27] was 97%. For the same compound, the residual activity [28] was 96%, the residual activity [29] was 100% and the residual activity [30] was 88%. For the same compound, the residual activity [31] was 84%, the residual activity [32] was 82% and the residual activity [33] was 100%. For the same compound, the residual activity [34] was 99%, the residual activity [35] was 100% and the residual activity [36] was 66%. The residual activity [37] was 91%, the residual activity [38] was 100% and the residual activity [39] was 100%. The residual activity [40] was 82%, the residual activity [41] was 98% and the residual activity [42] was 100%. For the same compound, the residual activity [43] was 88%, the residual activity [44] was 73% and the residual activity [45] was 98%.
